Measurements from a melting point compilation (Tetko et al.; mined from patent text by program, amines drawn as free bases though some values may be those of a salt).

First: Cc1cn2nc(-c3ccccc3)nc2cc1N
Second: COc1cc(N)c(SCc2ccccc2)cc1OC
The melting point of the first is higher: greater than 250 °C for the first, 86 to 88 °C for the second.

Compared with `Nc1ccc(S(=O)(=O)Nc2cccc3c(Cl)c[nH]c23)cn1`, `Cc1cc(-c2ccc(Cl)c(Cl)c2)nc(-c2ccnc(-c3cccc(S(N)(=O)=O)c3)c2)n1` is lower in melting point: 206 to 207 °C for the first, 202 °C for the second.

First: Cc1c2n(c3ccccc13)CCC(Br)C2=O (stereo not given)
Second: COc1cc2c(cc1OC)C1Cc3ccccc3CC(=O)N1CC2 (stereo not given)
The melting point of the first is lower: 126 to 128 °C for the first, 195 to 197 °C for the second.

First: CCOC(=O)N(c1ccc(C#N)cc1)c1c(NC(C)C(C)(C)C)c(=O)c1=O (stereo not given)
Second: CCOC(=O)c1c2c3c(cccc3n1C)C(OC)CC2 (stereo not given)
The melting point of the first is higher: 158 to 159 °C for the first, 63 to 64 °C for the second.

First: CN1C(=O)C(C(=O)Nc2ccc(F)cc2)S(=O)(=O)c2ccccc21 (stereo not given)
Second: COc1ccc2c(c1)C(=O)C(=O)N2c1ccc(F)cc1
The melting point of the first is lower: 189 to 192 °C for the first, 246 to 247 °C for the second.

First: N#Cc1c(Sc2ncc([N+](=O)[O-])s2)nsc1Sc1ncc([N+](=O)[O-])s1
Second: CCOC(=O)C1=C(C)NC(c2ccc([N+](=O)[O-])cc2)=C(C(=O)OCC)C1c1cccc([N+](=O)[O-])c1 (stereo not given)
The melting point of the first is higher: 197 to 200 °C for the first, 176 to 177 °C for the second.

First: COc1ncccc1-c1cncc(OC2SCC(O)C(O)C2O)c1 (stereo not given)
Second: NC(=O)N(O)CC#Cc1cccc(Oc2ccccn2)c1
The melting point of the first is higher: 209 °C for the first, 158 to 160 °C for the second.

First: O=C(Nc1ccccc1C(F)(F)F)c1ccc([N+](=O)[O-])cc1
Second: CC(=O)c1cc(Oc2ccc(NC(=O)Nc3ccccc3C(F)(F)F)cc2)ncn1
The melting point of the first is lower: 126 °C for the first, 149 to 151 °C for the second.

Compared with `COc1ccc(C2=NN(C)C(=O)[C@H]3CCCC[C@@H]23)cc1OC` (relative stereo), `O=C1C2CCCCC2C2(c3ccccc3)NCCN12` (stereo not given) is higher in melting point: 110 to 112 °C for the first, 170 °C for the second.

First: CC(C)OP(C)(=O)COS(=O)(=O)c1c(Cl)cccc1C(C)C (stereo not given)
Second: CC(C)n1c(=O)c(C(=O)NCC2CCN(CC3(O)CCOCC3)CC2)cc2c(Cl)cccc21
The melting point of the first is lower: 69.5 to 70.5 °C for the first, 227 °C for the second.

First: Cc1ccccc1NC(=O)Nc1ccc(CC(=O)N[C@@H](CC(C)C)C(=O)O)cc1
Second: CC(C)n1c(C=O)c(-c2ccc(F)cc2)c(-c2ccc(F)cc2)c1C(=O)Nc1cccc(C(=O)N(C)C)c1
The melting point of the first is higher: 178 to 179 °C for the first, 133 to 135 °C for the second.

First: CCCC(=O)Nc1nc(=O)n(C2OC(C)C(O)C2O)cc1F (stereo not given)
Second: COC(=O)N1CCC2=NNC(=O)CC2C1 (stereo not given)
The melting point of the first is lower: 156 to 157 °C for the first, 163 to 165 °C for the second.

Compared with `O=S1(=O)CCCSC(Cl)=N1`, `Cc1ccc(S(=O)(=O)OC[C@@H]2COc3ccc4scc(Cl)c4c3O2)cc1` is higher in melting point: 156 °C for the first, 169 to 170 °C for the second.

First: COC(=O)COc1cccc2c(CCN=[N+]=[N-])coc12
Second: CCOc1nn(Cc2ccc(OCc3cn4c(-c5ccccc5)cccc4n3)cc2)cc1CCC(=O)O
The melting point of the first is lower: 95 to 97 °C for the first, 160 to 161 °C for the second.

First: N[C@H](C(=O)O)[C@H](S)c1ccccc1
Second: O=C(OCc1ccccc1)N1CC(O)(C(=O)O)C1
The melting point of the first is lower: 107 to 108 °C for the first, 134 to 136 °C for the second.

Compared with `O=C(O)c1ccc(-c2nc(-c3ccc(C(F)(F)F)cc3)no2)c([N+](=O)[O-])c1`, `FC(F)(F)c1ccc(-n2nnnc2Nc2ccc(C(F)(F)F)cc2Cl)cc1` is lower in melting point: 233 to 234 °C for the first, 116 °C for the second.

First: COc1cc2c(cc1OC)C(C(CO)CO)NCC2 (stereo not given)
Second: O=C1CC(c2ccccc2)NC(=O)C1C(=O)c1ccccc1F (stereo not given)
The melting point of the first is higher: 140 °C for the first, 115 to 116 °C for the second.

First: Fc1ccccc1C1=NCc2c[nH]cc2-c2ccc(Cl)cc21
Second: Nc1ccc2c(ccn2Cc2ccccc2)c1
The melting point of the first is higher: 197 to 199 °C for the first, 66 to 68 °C for the second.

First: CCCC1(C(=O)N(C)Cc2ccccc2)c2ccccc2-c2ccccc21
Second: O=C1c2ccccc2C(=O)N1CCCN1CCC(C(c2ccccc2)c2ccccc2)CC1
The melting point of the first is lower: 73 to 74 °C for the first, 104 to 106 °C for the second.

First: O=c1n(CC(O)c2ccccc2)c2c(Br)c(Br)c(Br)c(Br)c2n1CC(O)c1ccccc1 (stereo not given)
Second: CCCCCCCCCCSc1ccc(Br)cc1
The melting point of the first is higher: 121 to 123 °C for the first, 37 to 39 °C for the second.
